Measurements reported in patent publication US10721933B2, “Pesticidally active semi-carbazones and thiosemicarbazones derivatives” (Syngenta Participations AG, priority 2015, dated 2020).

How the values were obtained:
[1] = test system: Plutella xylostella; assay: Plutella xylostella (diamond back moth), treated artificial diet, L2 larvae; type: in vivo; settings: 120 h, application rate of 200 ppm, 5 days after infestation, in comparison to untreated samples, read-out: effect in at least one of the two categories (mortality or growth inhibition)
Procedure: Example B2: Plutella xylostella (Diamond Back Moth)
(§1) 24-well microtiter plates with artificial diet were treated with aqueous test solutions prepared from 10,000 ppm DMSO stock solutions by pipetting. After drying, the plates were infested with L2 larvae (10 to 15 per well). The samples were assessed for mortality and growth inhibition in comparison to untreated samples 5 days after infestation.

[2] = test system: Spodoptera littoralis; assay: Spodoptera littoralis (Egyptian cotton leaf worm), sprayed cotton leaf discs, L1 larvae; type: in vivo; settings: foliar, 72 h, application rate of 200 ppm, 3 days after infestation, in comparison to untreated samples, read-out: control (at least one of mortality, anti-feedant effect, growth inhibition)
Procedure: Example B1: Spodoptera littoralis (Egyptian Cotton Leaf Worm)
Cotton leaf discs were placed on agar in 24-well microtiter plates and sprayed with aqueous test solutions prepared from 10,000 ppm DMSO stock solutions. After drying, the leaf discs were infested with five L1 larvae. The samples were assessed for mortality, anti-feedant effect, and growth inhibition in comparison to untreated samples 3 days after infestation. Control of Spodoptera littoralis by a test sample is when at least one of mortality, anti-feedant effect, and growth inhibition is higher than the untreated sample.

[3] = test system: Diabrotica balteata; assay: Diabrotica balteata (corn root worm), sprayed maize sprouts, L2 larvae; type: in vivo; settings: 96 h, application rate of 200 ppm, 4 days after infestation, in comparison to untreated samples, read-out: effect in at least one of the two categories (mortality or growth inhibition)
Procedure: Example B3: Diabrotica balteata (Corn Root Worm)
as §1, with “Maize sprouts, placed on an agar layer in 24-well” for “24-well”, “plates” for “plates with artificial diet”, “spraying.” for “pipetting.”, “(6” for “(10”, “10” for “15”, “4” for “5”

Structure (SMILES)	percent effect (mortality or growth inhibition) at 200 ppm [1]	melting point	percent control (mortality, anti-feedant effect or growth inhibition) at 200 ppm [2]	percent effect (mortality or growth inhibition) at 200 ppm [3]
Cc1cccc(C)c1NC(=S)N/N=C/c1ccc2c(c1)C(=O)N(c1ccc(OC(F)(F)F)cc1)C2=O [Compound P4, 1-(2,6-dimethylphenyl)-3-[(E)-[1,3-dioxo-2-[4-(trifluoromethoxy)phenyl]isoindolin-5-yl]methyleneamino]thiourea]	≥ 80%			
CC(C)c1ccccc1NC(=O)N/N=C/c1ccc2c(cnn2-c2ccc(OC(F)(F)F)cc2)c1 [Compound P23]		207 to 213 °C		
CC(C)c1ccccc1NC(=S)N/N=C/c1ccc2c(c1)C(=O)N(c1ccc(OC(F)(F)F)cc1)C2=O [Compound P12]	≥ 80%			
CC(C)c1ccccc1NC(=O)N/N=C/c1ccc2nc(-c3ccc(OC(F)(F)F)cc3)n(C)c2c1 [Compound P32]	≥ 80%		≥ 80%	
CC(C)c1ccccc1NC(=S)N/N=C/c1ccc2nc(-c3ccc(OC(F)(F)F)cc3)n(C)c2c1 [Compound P34]	≥ 80%		≥ 80%	
Cc1cccc(C)c1NC(=S)N/N=C/c1ccc2sc(-c3ccc(OC(F)(F)F)cc3)nc2c1 [Compound P13, 1-(2,6-dimethylphenyl)-3-[(E)-[2-[4-(trifluoromethoxy)phenyl]-1,3-benzothiazol-5-yl]methyleneamino]thiourea]	≥ 80%			≥ 80%
CC(C)c1ccccc1NC(=O)N/N=C/c1ccc2c(c1)C(=O)N(c1ccc(OC(F)(F)F)cc1)C2=O [Compound P6]		239 to 240 °C		
CC(C)c1ccccc1NC(=O)N/N=C/c1ccc2cn(-c3ccc(OC(F)(F)F)cc3)nc2c1 [Compound P35]	≥ 80%		≥ 80%	≥ 80%
CC(C)c1ccccc1NC(=O)N/N=C/c1ccc2sc(-c3ccc(OC(F)(F)F)cc3)nc2c1 [Compound P15]	≥ 80%			≥ 80%
CC(C)c1ccccc1NC(=S)N/N=C/c1ccc2cn(-c3ccc(OC(F)(F)F)cc3)nc2c1 [Compound P36]	≥ 80%		≥ 80%	≥ 80%
CC(C)c1ccccc1NC(=S)N/N=C/c1ccc2sc(-c3ccc(OC(F)(F)F)cc3)nc2c1 [Compound P14]	≥ 80%			≥ 80%
O=C1c2ccc(/C=N/NC(=S)Nc3ccccc3C(F)(F)F)cc2C(=O)N1c1ccc(OC(F)(F)F)cc1 [Compound P11]		235 to 236 °C		
Cc1cccc(C)c1NC(=S)N/N=C/c1ccc2nn(-c3ccc(OC(F)(F)F)cc3)cc2c1 [Compound P25, 1-(2,6-dimethylphenyl)-3-[(E)-[2-[4-(trifluoromethoxy)phenyl]indazol-5-yl]methyleneamino]thiourea]		225 to 234 °C		
CC(C)c1ccccc1NC(=O)N/N=C/c1ccc2nc(-c3ccc(OC(F)(F)F)cc3)cn2c1 [Compound P19]	≥ 80%		≥ 80%	
Cc1cccc(C)c1NC(=O)N/N=C/c1ccc2c(cnn2-c2ccc(OC(F)(F)F)cc2)c1 [Compound P24, 1-(2,6-dimethylphenyl)-3-[(E)-[1-[4-(trifluoromethoxy)phenyl]indazol-5-yl]methyleneamino]urea]		227 to 233 °C		
Cc1cccc(C)c1NC(=S)N/N=C/c1ccc2nc(-c3ccc(OC(F)(F)F)cc3)n(C)c2c1 [Compound P30]	≥ 80%			
Cc1cccc(C)c1NC(=S)N/N=C/c1ccc2cn(-c3ccc(OC(F)(F)F)cc3)nc2c1 [Compound P1, N-(2,6-dimethylphenyl)-2-((2-(4-(trifluoromethoxy)phenyl)-2H-indazol-6-yl)methylene)hydrazinecarbothioamide]	≥ 80%		≥ 80%	≥ 80%
CC(C)c1ccccc1NC(=S)N/N=C/c1ccc2c(c1)nc(-c1ccc(OC(F)(F)F)cc1)n2C [Compound P33]	≥ 80%		≥ 80%	
CC(C)c1ccccc1NC(=S)N/N=C/c1ccc2c(cnn2-c2ccc(OC(F)(F)F)cc2)c1 [Compound P22]	≥ 80%			
Cc1cccc(C)c1NC(=O)N/N=C/c1ccc2nc(-c3ccc(OC(F)(F)F)cc3)cn2c1 [Compound P18, 1-(2,6-dimethylphenyl)-3-[(E)-[2-[4-(trifluoromethoxy)phenyl]imidazo[1,2-a]pyridin-6-yl]methyleneamino]urea]	≥ 80%		≥ 80%	
CC(C)c1ccccc1NC(=S)N/N=C/c1ccc2nc(Oc3ccc(OC(F)(F)F)cc3)ccc2c1 [Compound P2, N-(2-isopropylphenyl)-2-((2-(4-(trifluoromethoxy)phenoxy)quinolin-6-yl)methylene)hydrazinecarbothioamide]	≥ 80%		≥ 80%	≥ 80%
Cc1cccc(C)c1NC(=O)N/N=C/c1ccc2nc(-c3ccc(OC(F)(F)F)cc3)n(C)c2c1 [Compound P28, 1-(2,6-dimethylphenyl)-3-[(E)-[3-methyl-2-[4-(trifluoromethoxy)phenyl]benzimidazol-5-yl]methyleneamino]urea]		218 to 219 °C		
Cc1cccc(C)c1NC(=O)N/N=C/c1ccc2c(c1)nc(-c1ccc(OC(F)(F)F)cc1)n2C [Compound P27, 1-(2,6-dimethylphenyl)-3-[(E)-[1-methyl-2-[4-(trifluoromethoxy)phenyl]benzimidazol-5-yl]methyleneamino]urea]			≥ 80%	
CC(C)c1ccccc1NC(=O)N/N=C/c1ccc2c(c1)nc(-c1ccc(OC(F)(F)F)cc1)n2C [Compound P31]	≥ 80%		≥ 80%	
Cc1cccc(C)c1NC(=S)N/N=C/c1ccc2c(c1)nc(-c1ccc(OC(F)(F)F)cc1)n2C [Compound P29]	≥ 80%		≥ 80%	≥ 80%
Cc1cccc(C)c1NC(=S)N/N=C/c1ccc2c(cnn2-c2ccc(OC(F)(F)F)cc2)c1 [Compound P21, 1-(2,6-dimethylphenyl)-3-[(E)-[1-[4-(trifluoromethoxy)phenyl]indazol-5-yl]methyleneamino]thiourea]			≥ 80%	≥ 80%
Cc1cccc(C)c1NC(=S)N/N=C/c1ccc2nc(-c3ccc(OC(F)(F)F)cc3)cn2c1 [Compound P17, 1-(2,6-dimethylphenyl)-3-[(E)-[2-[4-(trifluoromethoxy)phenyl]imidazo[1,2-a]pyridin-6-yl]methyleneamino]thiourea]	≥ 80%		≥ 80%	≥ 80%
